In ChEMBL document CHEMBL1141727, “Isolation and cytotoxic evaluation of marine sponge-derived norterpene peroxides” (J Nat Prod, 1998):

Experiments:
Assay type in all cases: functional
P388 = assay: Growth inhibition of mouse P388 cells assessed as zone units at 50 ug/disk by disk diffusion agar colony formation assay
[1] = Growth inhibition of human Hs 578T cells
SF-268 = assay: Growth inhibition of human SF268 cells
[2] = Growth inhibition of mouse M17/ADR cells assessed as zone units at 50 ug/disk by disk diffusion agar colony formation assay
OVCAR-8 = assay: Growth inhibition of human OVCAR8 cells
MOLT-4 = assay: Growth inhibition of human MOLT4 cells
HT-29 = assay: Growth inhibition of human HT-29 cells
HL-60(TB) = assay: Growth inhibition of human HL-60(TB) cells
CCRF-CEM = assay: Growth inhibition of human CCRF-CEM cells
U-251 = assay: Growth inhibition of human U251 cells
KM12 = assay: Growth inhibition of human KM12 cells
MDA-MB-435 = assay: Growth inhibition of human MDA-MB-435 cells
NCI-H522 = assay: Growth inhibition of human NCI-H522 cells
MDA-MB-231 = assay: Growth inhibition of human MDA-MB-231 cells
A498 = assay: Growth inhibition of human A498 cells
PO3 = assay: Growth inhibition of mouse PO3 cells assessed as zone units at 50 ug/disk by disk diffusion agar colony formation assay
L1210 = assay: Growth inhibition of mouse L1210 cells assessed as zone units at 50 ug/disk by disk diffusion agar colony formation assay
SR = assay: Growth inhibition of human SR cells
EKVX = assay: Growth inhibition of human EKVX cells
HOP-92 = assay: Growth inhibition of human HOP92 cells
[3] = Growth inhibition of human […] cells
Malme-3M = assay: Growth inhibition of human MALME-3M cells
SK-MEL-2 = assay: Growth inhibition of human SK-MEL-2 cells
OVCAR-3 = assay: Growth inhibition of human OVCAR-3 cells
[4] = Growth inhibition of human MCF7/ADR resistant cells; conditions: NCI/ADR-RES
HOP-62 = assay: Growth inhibition of human HOP62 cells
K562 = assay: Growth inhibition of human K562 cells
IGROV-1 = assay: Growth inhibition of human IGROV1 cells
SNB-75 = assay: Growth inhibition of human SNB75 cells
SK-MEL-28 = assay: Growth inhibition of human SK-MEL-28 cells

## CC1=C(CC/C(C)=C/CC[C@@]2(C)CC[C@@H]([C@H](C)C(=O)O)OO2)C(C)(C)CCC1 [EPIMUQUBILIN A]
P388
  Activity: 50 Zone units
[1]
  GI50: > 100 µM
SF-268
  GI50: > 100 µM
[2]
  Activity: 70 Zone units
OVCAR-8
  GI50: > 100 µM
MOLT-4
  GI50: 42.6 µM
HT-29
  GI50: > 100 µM
HL-60(TB)
  GI50: 47.8 µM
CCRF-CEM
  GI50: 61.7 µM
U-251
  GI50: > 100 µM
KM12
  GI50: > 100 µM
MDA-MB-435
  GI50: > 100 µM
NCI-H522
  GI50: 13.8 µM
MDA-MB-231
  GI50: > 100 µM
A498
  GI50: > 100 µM
PO3
  Activity: 0 Zone units
L1210
  Activity: 50 Zone units
SR
  GI50: > 100 µM
EKVX
  GI50: > 100 µM
HOP-92
  GI50: > 100 µM
[3]
  GI50: > 100 µM
Malme-3M
  GI50: > 100 µM
SK-MEL-2
  GI50: > 100 µM
OVCAR-3
  GI50: > 100 µM
[4]
  GI50: > 100 µM
HOP-62
  GI50: > 100 µM
K562
  GI50: > 100 µM
IGROV-1
  GI50: 43.6 µM
SNB-75
  GI50: > 100 µM
SK-MEL-28
  GI50: > 100 µM
